# Measured values published in patent publication US11530210B2, “Substituted heteroaromatic pyrazolo-pyridines and their use as GLUN2B receptor modulators” (JANSSEN PHARMACEUTICA NV, priority 2019, dated 2022).
# What was measured:
# [1] = target: T1, human GluN1/GluN2B NMDA receptors (Homo sapiens, UniProt Q13224); experiment: Calcium flux (FLIPR) assay on cloned human NR1/GluN2B ion channels expressed in mammalian cells (standard and HTS variants); type: cell-based; details: cells expressing human GluN1/GluN2B, glutamate and glycine co-agonists
# T1 construct: expressed in transfected cells
# How it was run: (§1)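 Tet-On-induced stable cell line loaded with Calcium 5 dye; compounds applied 5 min (agonist check), then glutamate at ~EC40 plus 10 μM glycine for 5 min. Buffer pH 7.4 with 0.5 mM MgCl2 in dye loading (standard) or 1.5 mM (HTS). FLIPR fluorescence normalized to control wells; (+)MK-801 as antagonist control.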
# [2] = Liver microsomal stability (extraction ratio); type: in vitro ADME, mouse, rat, and human; details: test compound 1 μM, 0.5 mg/mL liver microsomes, NADPH 1 mM, 37° C.; ER = predicted hepatic clearance / species blood flow; species not given
# Experimental: Protocol for Liver Microsomal Stability (Extraction Ratio)
# Liver Microsomal Stability. Microsomal stability studies (Chrovian et al, “1H-Pyrrolo[3,2-b]pyridine GluN2B-Selective Negative Allosteric Modulators”. ACS Med Chem Lett. 2019 Jan. 10; 10(3):261-266) were conducted on a Biomek® FX Robotic Liquid Handling Workstation (Beckman Coulter, Brea, Calif.), which consists of a 96-channel pipette head, a 12-postion workstation deck, and a plate incubator. Test compounds (1 μm) were spiked in a reaction mix consisting of 100 mM potassium phosphate buffer (pH 7.4), 3 mM MgCl2, and 0.5 mg/mL liver microsomes from mouse, rat, and human (BD Gentest). The reaction was brought to 37° C. and initiated by adding NADPH to a final concentration of 1 mM. After mixing on the platedeck, 50 µL aliquots were excised from the reaction plate at 0, 5, 10, 20, 40, and 60 min and quenched with four volumes of acetonitrile spiked with […] of the internal standard phenytoin. Quenched plates were centrifuged at 5700 rpm for 10 min at 4° C., and supernatant was diluted 1:3 in water before LC/MS/MS analysis. The compound half-lives were derived from plots of the ln of percent remaining compound over time to determine the intrinsic clearance. The predicted hepatic clearance was derived from the intrinsic clearance value using equations from the well-stirred model (Current Drug Metabolism, 2008, 9, 940-951), where no correction was made plasma protein binding and the blood to plasma concentration ratio was assumed to be one.
# [3] = target: T2, human GluN1/GluN2B NMDA receptors (Homo sapiens, UniProt Q05586+Q13224); experiment: Calcium flux (FLIPR) assay on cloned human NR1/GluN2B ion channels expressed in mammalian cells (standard and HTS variants); type: cell-based; details: cells expressing human GluN1/GluN2B, glutamate and glycine co-agonists
# T2 construct: expressed in transfected cells
# How it was run: as §1
# T2 sequence (Q13224 27-1484, other chains not shown): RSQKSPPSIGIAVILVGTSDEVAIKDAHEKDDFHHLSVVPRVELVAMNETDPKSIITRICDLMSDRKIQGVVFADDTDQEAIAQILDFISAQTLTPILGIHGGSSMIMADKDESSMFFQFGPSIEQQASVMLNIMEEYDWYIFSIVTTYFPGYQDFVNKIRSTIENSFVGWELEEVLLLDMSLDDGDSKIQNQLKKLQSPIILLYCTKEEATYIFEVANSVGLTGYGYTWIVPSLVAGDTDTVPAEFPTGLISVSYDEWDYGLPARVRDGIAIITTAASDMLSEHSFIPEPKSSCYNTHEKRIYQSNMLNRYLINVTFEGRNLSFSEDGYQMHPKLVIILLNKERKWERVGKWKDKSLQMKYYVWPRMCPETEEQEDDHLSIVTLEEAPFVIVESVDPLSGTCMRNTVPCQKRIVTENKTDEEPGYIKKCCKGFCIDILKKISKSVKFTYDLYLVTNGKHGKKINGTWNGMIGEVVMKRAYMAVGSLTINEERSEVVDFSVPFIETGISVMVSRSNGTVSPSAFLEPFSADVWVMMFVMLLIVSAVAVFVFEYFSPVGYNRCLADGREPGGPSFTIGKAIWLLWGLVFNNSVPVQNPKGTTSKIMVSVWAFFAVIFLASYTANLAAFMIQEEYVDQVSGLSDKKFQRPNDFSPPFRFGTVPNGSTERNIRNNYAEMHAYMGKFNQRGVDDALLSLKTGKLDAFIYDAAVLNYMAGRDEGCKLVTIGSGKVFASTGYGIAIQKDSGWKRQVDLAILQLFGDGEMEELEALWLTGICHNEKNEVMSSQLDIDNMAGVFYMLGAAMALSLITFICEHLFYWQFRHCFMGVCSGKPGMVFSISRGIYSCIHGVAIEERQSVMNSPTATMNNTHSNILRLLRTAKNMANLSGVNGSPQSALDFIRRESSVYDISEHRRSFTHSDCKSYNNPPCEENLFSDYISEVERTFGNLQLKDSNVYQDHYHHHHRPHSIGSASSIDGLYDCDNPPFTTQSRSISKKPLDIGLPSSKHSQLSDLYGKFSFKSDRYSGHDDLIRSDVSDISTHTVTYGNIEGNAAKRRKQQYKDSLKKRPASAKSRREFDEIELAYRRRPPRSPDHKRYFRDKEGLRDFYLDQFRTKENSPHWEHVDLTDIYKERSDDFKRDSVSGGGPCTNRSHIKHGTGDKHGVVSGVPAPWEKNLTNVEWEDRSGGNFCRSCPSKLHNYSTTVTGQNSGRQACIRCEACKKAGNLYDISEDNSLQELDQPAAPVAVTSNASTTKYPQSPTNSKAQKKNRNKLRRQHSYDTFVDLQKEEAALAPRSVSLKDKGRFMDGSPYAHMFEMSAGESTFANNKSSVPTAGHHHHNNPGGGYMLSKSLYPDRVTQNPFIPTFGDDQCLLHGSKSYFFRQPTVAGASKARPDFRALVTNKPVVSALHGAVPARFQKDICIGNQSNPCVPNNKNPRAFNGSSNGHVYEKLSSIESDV
# T1 sequence (Q13224 27-1484, other chains not shown): as above
SMILES,IC50 [1],Extraction Ratio @ 1 μM [2],IC50 [3]
"Cc1nnc(Cn2nc(F)c3ncc(-c4ccc(F)c(C(F)F)c4)cc32)o1 [Example 96, 2-[[6-[3-(Difluoromethyl)-4-fluoro-phenyl]-3-fluoro-pyrazolo[4,3-b]pyridin-1-yl]methyl]-5-methyl-1,3,4-oxadiazole]",38 nM,<0.298,–
"Fc1ccc(-c2cnc3cnn(Cc4cccnc4)c3c2)cc1C(F)F [Example 198, 6-[3-(Difluoromethyl)-4-fluoro-phenyl]-1-(3-pyridylmethyl)pyrazolo[4,3-b]pyridine]",8 nM,0.65,–
"Cc1cc(Cn2ncc3ncc(-c4ccc(F)c(C(F)F)c4)cc32)on1 [Example 52, 5-[[6-[3-(Difluoromethyl)-4-fluoro-phenyl]pyrazolo[4,3-b]pyridin-1-yl]methyl]-3-methyl-isoxazole]",22 nM,0.69,–
"Fc1cncc(Cn2ncc3ncc(-c4ccc(F)c(C(F)F)c4)cc32)c1 [Example 202, 6-[3-(Difluoromethyl)-4-fluoro-phenyl]-1-[(5-fluoro-3-pyridyl)methyl]pyrazolo[4,3-b]pyridine]",14 nM,0.57,–
"[2H]c1nn(Cc2nnc(C)o2)c2cc(-c3ccc(F)c(C(F)F)c3)cnc12 [compound 297, 2-[[3-Deuterio-6-[3-(difluoromethyl)-4-fluoro-phenyl]pyrazolo [4,3-b]pyridin-1-yl]methyl]-5-methyl-1,3,4-oxadiazole]",–,–,24 nM
"Cc1nc(Cn2ncc3ncc(-c4ccc(F)c(C(F)F)c4)cc32)no1 [Example 97, 3-[[6-[3-(Difluoromethyl)-4-fluoro-phenyl]pyrazolo[4,3-b]pyridin-1-yl]methyl]-5-methyl-1,2,4-oxadiazole]",41 nM,0.42,–
"COc1nnc(Cn2ncc3ncc(-c4ccc(F)c(OC(F)F)c4)cc32)s1 [Example 134, 2-[[6-[3-(difluoromethoxy)-4-fluoro-phenyl]pyrazolo[4,3-b]pyridin-1-yl]methyl]-5-methoxy-1,3,4-thiadiazole]",–,–,1320 nM
"Cc1nnc(Cn2ncc3ncc(-c4ccc(F)c(C(F)F)c4)cc32)s1 [Example 122, 2-[[6-[3-(Difluoromethyl)-4-fluoro-phenyl]pyrazolo[4,3-b]pyridin-1-yl]methyl]-5-methyl-1,3,4-thiadiazole]",18 nM,0.60,–
"Fc1ccc(-c2cnc3cnn(Cc4cncnc4)c3c2)cc1C(F)F [Example 275, 6-[3-(Difluoromethyl)-4-fluoro-phenyl]-1-(pyrimidin-5-ylmethyl)pyrazolo[4,3-b]pyridine]",12 nM,0.36,–
"CC(F)(F)c1cccc(-c2cnc3cnn(Cc4cccnc4)c3c2)c1 [Example 12, 6-[3-(1,1-Difluoroethyl)phenyl]-1-(3-pyridylmethyl)pyrazolo[4,3-b]pyridine]",–,–,26 nM
"Cc1nnc(Cn2ncc3ncc(-c4ccc(F)c(C(F)F)c4)cc32)o1 [Example 10, 2-[[6-[3-(Difluoromethyl)-4-fluoro-phenyl]pyrazolo[4,3-b]pyridin-1-yl]methyl]-5-methyl-1,3,4-oxadiazole]",19 nM,0.31,–
"CC(F)(F)c1cc(-c2cnc3cnn(Cc4cn[nH]c4)c3c2)ccc1F [Example 40, 6-[3-(1,1-Difluoroethyl)-4-fluoro-phenyl]-1-(1H-pyrazol-4-ylmethyl)pyrazolo[4,3-b]pyridine]",–,–,825 nM
"Cc1cnc(Cn2ncc3ncc(-c4ccc(F)c(C(F)F)c4)cc32)o1 [Example 8, 2-[[6-[3-(Difluoromethyl)-4-fluoro-phenyl]pyrazolo[4,3-b]pyridin-1-yl]methyl]-5-methyl-oxazole]",28 nM,0.68,–
"Fc1ccc(-c2cnc3cnn(Cc4cccnn4)c3c2)cc1C(F)F [Example 261, 6-[3-(Difluoromethyl)-4-fluoro-phenyl]-1-(pyridazin-3-ylmethyl)pyrazolo[4,3-b]pyridine]",23 nM,<0.298,–
"Cc1cccc(-c2cnc3cnn(Cc4ccc(F)nc4)c3c2)c1 [Example 145, 1-[(6-Fluoro-3-pyridyl)methyl]-6-(m-tolyl)pyrazolo[4,3-b]pyridine]",36 nM,–,–
"Cc1c(F)ccc(-c2cnc3cnn(Cc4nnc(C(F)(F)F)o4)c3c2)c1F [Example 119, 2-[[6-(2,4-Difluoro-3-methyl-phenyl)pyrazolo[4,3-b]pyridin-1-yl]methyl]-5-(trifluoromethyl)-1,3,4-oxadiazole]",245 nM,–,–
"Cc1cc(Cn2ncc3ncc(-c4ccc(F)c(OC(F)F)c4)cc32)ncn1 [Example 281, 6-[3-(Difluoromethoxy)-4-fluoro-phenyl]-1-[(6-methylpyrimidin-4-yl)methyl]pyrazolo[4,3-b]pyridine]",984 nM,–,–
"Fc1ccc(-c2cnc3cnn(Cc4cccnn4)c3c2)cc1OC(F)F [Example 263, 6-[3-(Difluoromethoxy)-4-fluoro-phenyl]-1-(pyridazin-3-ylmethyl)pyrazolo[4,3-b]pyridine]",112 nM,–,–
